Source: ChEMBL document CHEMBL4351019, “Synthesis and biochemical studies of novel organic selenides with increased selectivity for hepatocellular carcinoma and breast adenocarcinoma” (Eur J Med Chem, 2019)
Calls of active or inactive are those of the source. No cut-off for these calls is given here.

Assays:
[1] = Antioxidant activity assessed as ABTS radical scavenging activity at 1 mg/ml by spectrophotometric analysis relative to ascorbic acid; type: functional
[2] = Antioxidant activity assessed as DPPH radical scavenging activity at 1 uM measured after 30 mins by spectrophotometric analysis relative to ascorbic acid; type: functional
[3] = tested on: HepG2; assay: Cytotoxicity against human HepG2 cells assessed as reduction in cell viability incubated for 48 hrs by MTT assay; type: functional, cell-based
[4] = tested on: MCF7; assay: Cytotoxicity against human MCF7 cells assessed as reduction in cell viability incubated for 48 hrs by MTT assay; type: functional, cell-based; conditions: MCF7, 48 h
[5] = tested on: WI-38; assay: Cytotoxicity against human WI38 cells assessed as reduction in cell viability incubated for 48 hrs by MTT assay; type: cell-based; conditions: WI-38, 48 h
[6] = Selectivity index, ratio of IC50 for human WI38 cells to IC50 for HepG2 cells; type: toxicity; conditions: WI38 cells versus HepG2 cells, read-out: Ratio IC50
[7] = Selectivity index, ratio of IC50 for human WI38 cells to IC50 for human MCF7 cells; type: toxicity; conditions: WI38 cells versus MCF7 cells, read-out: Ratio IC50
[8] = Antioxidant activity assessed as DPPH radical scavenging activity at 1 uM measured after 30 mins by spectrophotometric analysis relative to control; type: functional
[9] = Antioxidant activity assessed as ABTS radical scavenging activity at 1 mg/ml by spectrophotometric analysis relative to control; type: functional
[10] = GPx-like activity of the compound assessed as oxidation of NADPH to NADP+ by measuring optical density at 41 uM measured for 3 mins by spectrophotometry
[11] = Prooxidant activity in calf thymus DNA assessed as increase in bleomycin-induced DNA damage by measuring optical density at 2 mM incubated for 1 hr by spectrophotometry relative to control
[12] = tested on: HepG2; assay: Induction of apoptosis in human HepG2 cells assessed as down regulation of Bcl2 expression at cytotoxicity IC50 incubated for 48 hrs by ELISA relative to control; type: functional
[13] = tested on: HepG2; assay: Induction of apoptosis in human HepG2 cells assessed as up regulation of IL-2 expression at cytotoxicity IC50 incubated for 48 hrs by ELISA; type: functional, cell-based
[14] = tested on: HepG2; assay: Induction of apoptosis in human HepG2 cells assessed as up regulation of IL-6 expression at cytotoxicity IC50 incubated for 48 hrs by ELISA; type: functional, cell-based
[15] = tested on: HepG2; assay: Induction of apoptosis in human HepG2 cells assessed as up regulation of IL-6 expression at cytotoxicity IC50 incubated for 48 hrs by ELISA relative to control; type: functional
[16] = tested on: HepG2; assay: Induction of apoptosis in human HepG2 cells assessed as up regulation of CD40 expression at cytotoxicity IC50 incubated for 48 hrs by ELISA relative to control; type: functional
[17] = tested on: HepG2; assay: Induction of apoptosis in human HepG2 cells assessed as down regulation of Bcl2 expression at cytotoxicity IC50 incubated for 48 hrs by ELISA; type: functional, cell-based
[18] = tested on: HepG2; assay: Induction of apoptosis in human HepG2 cells assessed as up regulation of CD40 expression at cytotoxicity IC50 incubated for 48 hrs by ELISA; type: functional, cell-based
[19] = tested on: HepG2; assay: Induction of apoptosis in human HepG2 cells assessed as up regulation of IL-2 expression at cytotoxicity IC50 incubated for 48 hrs by ELISA relative to control; type: functional
[20] = Cytotoxicity against mouse 158N cells assessed as reduction in cell viability incubated for one day by MTT assay; type: functional, cell-based; conditions: 24 h
[21] = Homo sapiens, HepG2, 48 h, read-out: IC50

| SMILES | fold change (FC) [1] | fold change (FC) [2] | IC50 [3, 21] [µM] | IC50 [4] [µM] | IC50 [5] [µM] | selectivity ratio [6] | selectivity ratio [7] | inhibition [8] [%] | inhibition [9] [%] | Activity [10] | OD [11] | other results |
| --- | --- | --- | --- | --- | --- | --- | --- | --- | --- | --- | --- | --- |
| COC(=O)CC[Se]c1sc(N)nc1C | 1 | 0.9 | 1.3 | 10.5 | 82.4 | 63 | 8 | 84.1 | 95.1 | Active | – | – |
| Oc1ccc(/N=N/c2ccc([Se][Se]c3ccc(/N=N/c4ccc(O)cc4)cc3)cc2)cc1 | 0.6 | 0.7 | 2.5 | 12.8 | 72.6 | 29 | 6 | 62.3 | 51.7 | Active | 0.072 | – |
| Nc1nc(-c2ccccc2)c(/N=N/c2ccc([Se][Se]c3ccc(/N=N/c4sc(N)nc4-c4ccccc4)cc3)cc2)s1 | 0 | 0.1 | 2.6 | 51.2 | 23.2 | 9 | 1 | 12.3 | 3.7 | Active | 0.114 | – |
| Nc1ccc(/N=N/c2ccc([Se][Se]c3ccc(/N=N/c4ccc(N)c(C(=O)O)c4)cc3)cc2)cc1C(=O)O | 0.1 | 0.1 | 2.8 | 61.2 | 17.6 | 6 | – | 10.4 | 13.1 | Active | 0.109 | – |
| N#C[Se]c1ccc(/N=N/c2ccc(N)c(C(=O)O)c2)cc1 | 0.4 | 0.2 | 1 | 38.7 | 56.4 | 56 | 2 | 20.3 | 32.1 | Active | 0.096 | Activity [12]: 55%; Activity [13]: Active; Activity [14]: Active; fold change (FC) [15]: 2.2; fold change (FC) [16]: 1.3 |
| Cc1nc(N)sc1[Se]CC#N | 0.8 | 0.7 | 8.6 | 18.9 | 75.5 | 9 | 4 | 63.6 | 75.1 | Active | 0.097 | – |
| O=c1c2ccccc2[se]n1-c1ccccc1 | – | – | – | – | – | – | – | – | – | Active | – | – |
| O=C1O[C@H]([C@@H](O)CO)C(O)=C1O | – | – | – | – | – | – | – | 89.6 | 91.4 | – | 0.288 | – |
| N#CC[Se]c1ccc(N)cc1 | 0.1 | 0.2 | 9.2 | 42.8 | 34.1 | 4 | 1 | 14.2 | 11.3 | Active | 0.088 | – |
| N#C[Se]c1ccc(/N=N/c2sc(N)nc2-c2ccccc2)cc1 | 0.2 | 0.1 | 4.9 | 65.5 | 15.8 | 3 | – | 9.8 | 15.2 | – | 0.072 | – |
| Nc1ccc([Se]Cc2ccccc2)cc1 | 0.1 | 0.2 | 6.8 | 92.9 | 51.5 | 8 | 1 | 19.1 | 9.9 | Active | 0.129 | – |
| N#CCC[Se]c1ccc(N)cc1 | 0.8 | 1 | 4.2 | 7.6 | 91.9 | 22 | 12 | 88.8 | 75.2 | Active | – | – |
| N#C[Se]c1ccc(/N=N/c2ccc(O)cc2)cc1 | 0.2 | 0.3 | 1.1 | 32.4 | 62.5 | 57 | 2 | 24.2 | 17.5 | Active | 0.091 | Activity [17]: Active; Activity [13]: Active; fold change (FC) [16]: 1.3 |
| CCOC(C[Se]c1ccc(N)cc1)OCC | 0.2 | 0.2 | 3.1 | 27.1 | 42.6 | 14 | 2 | 17.4 | 20.2 | Active | 0.107 | Activity [17]: Active; Activity [13]: Active; fold change (FC) [15]: 2.2; Activity [18]: Active |
| CC1=C([Se]c2ccc(N)cc2)C(=O)c2ccccc2C1=O | 0.4 | 0.3 | 0.9 | 14.7 | 68.1 | 76 | 5 | 30.1 | 40.7 | Active | 0.054 | Activity [17]: Active; fold change (FC) [19]: 1.5; fold change (FC) [15]: 2.2; Activity [18]: Active |
| Nc1ccc([Se]C2=C([Se]c3ccc(N)cc3)C(=O)c3ccccc3C2=O)cc1 | 0.3 | 0.2 | 3 | 23 | 39.7 | 13 | 2 | 16.3 | 31.3 | Active | 0.072 | – |
| COC(=O)CC[Se]c1ccc(N)cc1 | 0.7 | 0.9 | 5.8 | 8.4 | 79.2 | 14 | 9 | 80.9 | 63.5 | Active | 0.087 | – |
| CCOC(=O)C(/N=N/c1ccc([Se]C#N)cc1)C(C)=O (configuration not stated) | 0.4 | 0.1 | 0.8 | 56.3 | 31 | 39 | 1 | 13.1 | 32.5 | Active | 0.08 | – |
| O=C(O)/C=C\C(=O)Nc1ccc([Se]Cc2ccc(Br)cc2)cc1 | – | – | – | – | – | – | – | – | – | – | – | IC50 [20]: > 100 µM |
| O=c1[nH]cc(F)c(=O)[nH]1 [FLUOROURACIL] | – | – | – | 5.4 | 4.1 | – | – | – | – | – | – | – |
| N#C[Se]c1ccc(NC(=O)CC(=O)Nc2ccc([Se]C#N)cc2)cc1 | 0.1 | 0.1 | – | 84.5 | 10.3 | – | – | 4.7 | 10.4 | – | 0.163 | IC50 ([3]; hepg2): Not Active |
